Reference: ChEMBL document CHEMBL1649413, “Structure-activity relationship of 4(5)-aryl-2-amino-1H-imidazoles, N1-substituted 2-aminoimidazoles and imidazo[1,2-a]pyrimidinium salts as inhibitors of biofilm formation by Salmonella typhimurium and Pseudomonas aeruginosa” (J Med Chem, 2011)
Calls of active or inactive are those of the source. The rule behind the calls is not given here.

Columns and labels:
Pseudomonas aeruginosa [1] = assay: Antibiofilm activity in Pseudomonas aeruginosa assessed as inhibition of biofilm formation at 25 degC after 24 hrs; format: functional, organism-based
Salmonella typhimurium [2] = assay: Antibiofilm activity in Salmonella Typhimurium ATCC 14028 assessed as inhibition of biofilm formation at 25 degC after 24 hrs; format: functional, organism-based, Salmonella enterica subsp. enterica serovar Typhimurium; conditions: Salmonella enterica, ATCC 14028, 24 h
Salmonella typhimurium [3] = assay: Antimicrobial activity against Salmonella Typhimurium ATCC 14028 assessed as inhibition of planktonic growth at 400 uM at 25 degC after 24 hrs; format: functional, organism-based; conditions: Salmonella enterica subsp. enterica serovar Typhimurium
Pseudomonas aeruginosa [4] = assay: Antimicrobial activity against Pseudomonas aeruginosa assessed as inhibition of planktonic growth at 20 uM at 25 degC after 24 hrs; format: functional, organism-based
Salmonella typhimurium [5] = assay: Antimicrobial activity against Salmonella Typhimurium ATCC 14028 assessed as inhibition of planktonic growth at 20 uM at 25 degC after 24 hrs; format: functional, organism-based; conditions: Salmonella enterica subsp. enterica serovar Typhimurium
Pseudomonas aeruginosa [6] = assay: Antimicrobial activity against Pseudomonas aeruginosa assessed as inhibition of planktonic growth at 40 uM at 25 degC after 24 hrs; format: functional, organism-based
Salmonella typhimurium [7] = assay: Antimicrobial activity against Salmonella Typhimurium ATCC 14028 assessed as inhibition of planktonic growth at 10 uM at 25 degC after 24 hrs; format: functional, organism-based; conditions: Salmonella enterica subsp. enterica serovar Typhimurium
Salmonella typhimurium [8] = assay: Antimicrobial activity against Salmonella Typhimurium ATCC 14028 assessed as inhibition of planktonic growth at 40 uM at 25 degC after 24 hrs; format: functional, organism-based; conditions: Salmonella enterica subsp. enterica serovar Typhimurium

## Cn1c(-c2ccc([N+](=O)[O-])cc2)cnc1N
Pseudomonas aeruginosa [1]
  IC50: 69.8 µM
Salmonella typhimurium [2]
  IC50: 162 µM

## CC[n+]1c(-c2ccc([N+](=O)[O-])cc2)cn2cccnc21.[O-][Cl+3]([O-])([O-])[O-]
Pseudomonas aeruginosa [1]
  IC50: > 800 µM
Salmonella typhimurium [2]
  IC50: > 800 µM

## O=[N+]([O-])c1ccc(-c2cn3cccnc3[n+]2C2CCCCC2)cc1.[O-][Cl+3]([O-])([O-])[O-]
Pseudomonas aeruginosa [1]
  IC50: 250 µM
Salmonella typhimurium [2]
  IC50: 561 µM

## c1cnc(NC2CCCCCC2)nc1
Salmonella typhimurium [3]
  inhibition: inactive

## c1cnc(NC2CCCC2)nc1
Salmonella typhimurium [3]
  inhibition: inactive

## CS(=O)(=O)c1ccc(-c2cnc(N)[nH]2)cc1
Pseudomonas aeruginosa [1]
  IC50: > 800 µM
Salmonella typhimurium [2]
  IC50: > 800 µM

## c1ccc(Nc2ncccn2)cc1
Salmonella typhimurium [3]
  inhibition: inactive

## Cc1ccc(-c2nc(N)n(-c3ccccc3)c2-c2ccc(Cl)cc2)cc1
Pseudomonas aeruginosa [1]
  IC50: > 800 µM
Salmonella typhimurium [2]
  IC50: > 400 µM

## c1cnc(NC2CCCCC2)nc1
Salmonella typhimurium [3]
  inhibition: inactive

## CCNc1ncccn1
Salmonella typhimurium [3]
  inhibition: inactive

## COc1cccc(Nc2ncccn2)c1
Salmonella typhimurium [3]
  inhibition: inactive

## CCCCCn1c(-c2ccc(-c3ccccc3)cc2)cnc1N
Pseudomonas aeruginosa [1]
  IC50: 73.9 µM
Salmonella typhimurium [2]
  IC50: 9.2 µM

## Nc1nc(-c2ccc(Cl)cc2)c(-c2cc(F)cc(F)c2)[nH]1
Salmonella typhimurium [2]
  IC50: 71.8 µM

## CCCCCNc1ncccn1
Salmonella typhimurium [3]
  inhibition: inactive

## CC(C)[n+]1c(-c2ccc([N+](=O)[O-])cc2)cn2cccnc21.[O-][Cl+3]([O-])([O-])[O-]
Pseudomonas aeruginosa [1]
  IC50: > 800 µM
Salmonella typhimurium [2]
  IC50: > 800 µM

## CCCCn1c(-c2ccc([N+](=O)[O-])cc2)cnc1N
Pseudomonas aeruginosa [1]
  IC50: 373 µM
Salmonella typhimurium [2]
  IC50: 114 µM

## Nc1ncc(-c2ccc(Cl)cc2)n1C1CC1
Pseudomonas aeruginosa [1]
  IC50: 13 µM
Pseudomonas aeruginosa [4]
  inhibition: inactive
Salmonella typhimurium [2]
  IC50: 54.8 µM

## COc1ccc(-c2cnc(N)[nH]2)cc1
Pseudomonas aeruginosa [1]
  IC50: 186 µM
Salmonella typhimurium [2]
  IC50: 120 µM

## Nc1ncc(-c2ccccc2)n1Cc1ccc2c(c1)OCO2
Pseudomonas aeruginosa [1]
  IC50: 104 µM
Salmonella typhimurium [2]
  IC50: 97.3 µM

## CCCCCCNc1ncccn1
Salmonella typhimurium [3]
  inhibition: inactive

## CCn1c(-c2ccc(F)cc2)cnc1N
Pseudomonas aeruginosa [1]
  IC50: 67.8 µM
Salmonella typhimurium [2]
  IC50: 290 µM

## Cc1ccc(CNc2ncccn2)cc1
Salmonella typhimurium [3]
  inhibition: inactive

## CCCCCCCCn1c(-c2ccccc2)cnc1N
Pseudomonas aeruginosa [1]
  IC50: 18.5 µM
Pseudomonas aeruginosa [4]
  inhibition: inactive
Salmonella typhimurium [5]
  inhibition: Active
Pseudomonas aeruginosa [6]
  inhibition: inactive
Salmonella typhimurium [2]
  IC50: 11.9 µM
Salmonella typhimurium [7]
  inhibition: inactive

## CCCC[n+]1c(-c2ccc([N+](=O)[O-])cc2)cn2cccnc21.[O-][Cl+3]([O-])([O-])[O-]
Pseudomonas aeruginosa [1]
  IC50: > 800 µM
Salmonella typhimurium [2]
  IC50: > 400 µM

## c1cnc(NC2CCCCCCC2)nc1
Salmonella typhimurium [3]
  inhibition: inactive

## Nc1ncc(-c2ccc(F)cc2)n1Cc1ccccc1
Pseudomonas aeruginosa [1]
  IC50: 32 µM
Salmonella typhimurium [2]
  IC50: 37.3 µM

## Cn1c(-c2ccc(Cl)cc2)cnc1N
Pseudomonas aeruginosa [1]
  IC50: 112 µM
Salmonella typhimurium [2]
  IC50: 108 µM

## CCCCn1c(-c2ccc(-c3ccccc3)cc2)cnc1N
Pseudomonas aeruginosa [1]
  IC50: 41.6 µM
Salmonella typhimurium [5]
  inhibition: Active
Salmonella typhimurium [8]
  inhibition: Active
Salmonella typhimurium [2]
  IC50: 21.1 µM

## Cn1c(-c2ccc(C#N)cc2)cnc1N
Pseudomonas aeruginosa [1]
  IC50: 331 µM
Salmonella typhimurium [2]
  IC50: > 400 µM

## Cn1c(-c2ccccc2)cnc1N
Pseudomonas aeruginosa [1]
  IC50: 95.2 µM
Salmonella typhimurium [2]
  IC50: 432 µM

## CCCCCCn1c(-c2ccc(-c3ccccc3)cc2)cnc1N
Pseudomonas aeruginosa [1]
  IC50: 32.1 µM
Salmonella typhimurium [5]
  inhibition: Active
Salmonella typhimurium [2]
  IC50: 12.1 µM
Salmonella typhimurium [7]
  inhibition: Active

## COc1ccc(CCNc2ncccn2)cc1
Salmonella typhimurium [3]
  inhibition: inactive

## C[n+]1c(-c2cccc([N+](=O)[O-])c2)cn2cccnc21.[O-][Cl+3]([O-])([O-])[O-]
Pseudomonas aeruginosa [1]
  IC50: > 800 µM
Salmonella typhimurium [2]
  IC50: 427 µM

## CCCCCCCCn1c(-c2ccc(-c3ccc(-c4ccccc4)cc3)cc2)cnc1N
Pseudomonas aeruginosa [1]
  IC50: > 800 µM
Salmonella typhimurium [2]
  IC50: 850 µM

## Nc1ncc(-c2ccc(-c3ccccc3)cc2)n1C1CCCCCCCCCCC1
Pseudomonas aeruginosa [1]
  IC50: > 800 µM
Salmonella typhimurium [2]
  IC50: > 800 µM

## c1ccc(CNc2ncccn2)cc1
Salmonella typhimurium [3]
  inhibition: inactive

## CCCCCCCNc1ncccn1
Salmonella typhimurium [3]
  inhibition: inactive

## CCCCCCCCn1c(-c2ccc(OC)cc2)cnc1N
Pseudomonas aeruginosa [1]
  IC50: 1.2 µM
Pseudomonas aeruginosa [4]
  inhibition: inactive
Salmonella typhimurium [5]
  inhibition: Active
Salmonella typhimurium [2]
  IC50: 8.5 µM
Salmonella typhimurium [7]
  inhibition: inactive

## COc1ccc(Cn2c(-c3ccccc3)cnc2N)cc1OC
Pseudomonas aeruginosa [1]
  IC50: 159 µM
Salmonella typhimurium [2]
  IC50: 156 µM

## c1cnc(NC2CCC2)nc1
Salmonella typhimurium [3]
  inhibition: inactive

## CCCCCCCCCCCCCCNc1ncccn1
Salmonella typhimurium [3]
  inhibition: inactive

## CN(C)c1ncccn1
Salmonella typhimurium [3]
  inhibition: inactive

## CCCCn1c(-c2ccc(F)cc2)cnc1N
Pseudomonas aeruginosa [1]
  IC50: 55.7 µM
Salmonella typhimurium [2]
  IC50: 56.2 µM

## CCCCCCCCn1c(-c2ccc(-c3ccc([N+](=O)[O-])cc3)cc2)cnc1N
Pseudomonas aeruginosa [1]
  IC50: > 800 µM
Salmonella typhimurium [2]
  IC50: 116 µM

## CCCCCCCCCCCCCNc1ncccn1
Salmonella typhimurium [3]
  inhibition: inactive

## CCCCCCCCCNc1ncccn1
Salmonella typhimurium [3]
  inhibition: inactive
